The term viability, T/C denotes the result in the treated group divided by that in the control group, in per cent.
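Also: spheroids exposed to compounds for one week before readout; percent viability relative to DMSO vehicle wells taken as 100%.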

The first assay concerns 317291-083-R-J1-PDC complex spheroids, viability. Put plainly: Anticancer human tumor 317291-083-R-J1-PDC patient-derived soft tissue sarcoma cell line growth inhibition [GQUAD]. As to conditions: second compound 0.316 µM; first compound 1 µM; stronger effect = lower value. An outline of the steps:
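Viability of tumor cells grown as complex spheroids with endothelial and stromal cells, exposed to drug combinations. Top concentration at or near clinical Cmax (else 10 microM), diluted in half-log increments.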
For the compound `CC(C)(O)C1CCC(Nc2ccc3ncc(-c4cccc(C(F)(F)F)c4)n3n2)CC1` (configuration not stated) + Cc1cnc(CNC(=O)c2c(=O)c3ccc(N4CCCN(C)CC4)nc3n3c2sc2ccccc23)cn1, the viability, T/C was 24.8%.

On to `C=CC(=O)N1CCN(c2nc(=O)n(-c3c(C)ccnc3C(C)C)c3nc(-c4c(O)cccc4F)c(F)cc23)C(C)C1` (configuration not stated) + Cc1[nH]c2ccc(F)cc2c1-c1nc2c3cccnc3c3ncccc3c2[nH]1, for which the viability, T/C is 99.4%.

Regarding `O=C(c1cc(Cc2n[nH]c(=O)c3ccccc23)ccc1F)N1CCN(C(=O)C2CC2)CC1` + CN(C)c1ccc(Nc2c3ccc(NC(=O)CCN4CCCC4)cc3nc3cc(NC(=O)CCN4CCCC4)ccc23)cc1, the viability, T/C was 67.6%.

With `COc1ccc([C@@H](O)c2cc(-c3ncnc4cc(N5CCOCC5)ccc34)c(F)cc2Cl)nn1` + Cc1[nH]c2ccc(F)cc2c1-c1nc2c3cccnc3c3ncccc3c2[nH]1, the viability, T/C is 92.5%.

The assay is the same for the next values; noted with them: second compound 0.316 µM; first compound 3.16 µM; stronger effect = lower value.
`CC(C)(O)C1CCC(Nc2ccc3ncc(-c4cccc(C(F)(F)F)c4)n3n2)CC1` (configuration not stated) + Cc1cnc(CNC(=O)c2c(=O)c3ccc(N4CCCN(C)CC4)nc3n3c2sc2ccccc23)cn1: the viability, T/C was 1.74%.

Take `C=CC(=O)N1CCN(c2nc(=O)n(-c3c(C)ccnc3C(C)C)c3nc(-c4c(O)cccc4F)c(F)cc23)C(C)C1` (configuration not stated) + Cc1[nH]c2ccc(F)cc2c1-c1nc2c3cccnc3c3ncccc3c2[nH]1: the viability, T/C was 104%.

With `O=C(c1cc(Cc2n[nH]c(=O)c3ccccc23)ccc1F)N1CCN(C(=O)C2CC2)CC1` + CN(C)c1ccc(Nc2c3ccc(NC(=O)CCN4CCCC4)cc3nc3cc(NC(=O)CCN4CCCC4)ccc23)cc1, the viability, T/C is 73.5%.

Consider `COc1ccc([C@@H](O)c2cc(-c3ncnc4cc(N5CCOCC5)ccc34)c(F)cc2Cl)nn1` + Cc1[nH]c2ccc(F)cc2c1-c1nc2c3cccnc3c3ncccc3c2[nH]1, for which the viability, T/C is 86.2%.

Still in this assay, the particulars now being: second compound 0.316 µM; first compound 10 µM; stronger effect = lower value.
As to `CC(C)(O)C1CCC(Nc2ccc3ncc(-c4cccc(C(F)(F)F)c4)n3n2)CC1` (configuration not stated) + Cc1cnc(CNC(=O)c2c(=O)c3ccc(N4CCCN(C)CC4)nc3n3c2sc2ccccc23)cn1, the viability, T/C is 2.26%.

Regarding `C=CC(=O)N1CCN(c2nc(=O)n(-c3c(C)ccnc3C(C)C)c3nc(-c4c(O)cccc4F)c(F)cc23)C(C)C1` (configuration not stated) + Cc1[nH]c2ccc(F)cc2c1-c1nc2c3cccnc3c3ncccc3c2[nH]1, the viability, T/C was 85.3%.

Consider `O=C(c1cc(Cc2n[nH]c(=O)c3ccccc23)ccc1F)N1CCN(C(=O)C2CC2)CC1` + CN(C)c1ccc(Nc2c3ccc(NC(=O)CCN4CCCC4)cc3nc3cc(NC(=O)CCN4CCCC4)ccc23)cc1, for which the viability, T/C is 48%.

As to `COc1ccc([C@@H](O)c2cc(-c3ncnc4cc(N5CCOCC5)ccc34)c(F)cc2Cl)nn1` + Cc1[nH]c2ccc(F)cc2c1-c1nc2c3cccnc3c3ncccc3c2[nH]1, the viability, T/C is 53%.

Staying with this assay, now noted: second compound 1 µM; first compound 0.0316 µM; stronger effect = lower value.
For the compound `CC(C)(O)C1CCC(Nc2ccc3ncc(-c4cccc(C(F)(F)F)c4)n3n2)CC1` (configuration not stated) + Cc1cnc(CNC(=O)c2c(=O)c3ccc(N4CCCN(C)CC4)nc3n3c2sc2ccccc23)cn1, the viability, T/C was 30.8%.

Consider `C=CC(=O)N1CCN(c2nc(=O)n(-c3c(C)ccnc3C(C)C)c3nc(-c4c(O)cccc4F)c(F)cc23)C(C)C1` (configuration not stated) + Cc1[nH]c2ccc(F)cc2c1-c1nc2c3cccnc3c3ncccc3c2[nH]1, for which the viability, T/C is 109%.

Take `O=C(c1cc(Cc2n[nH]c(=O)c3ccccc23)ccc1F)N1CCN(C(=O)C2CC2)CC1` + CN(C)c1ccc(Nc2c3ccc(NC(=O)CCN4CCCC4)cc3nc3cc(NC(=O)CCN4CCCC4)ccc23)cc1: the viability, T/C is 55%.

As for `COc1ccc([C@@H](O)c2cc(-c3ncnc4cc(N5CCOCC5)ccc34)c(F)cc2Cl)nn1` + Cc1[nH]c2ccc(F)cc2c1-c1nc2c3cccnc3c3ncccc3c2[nH]1, the viability, T/C is 90.6%.

Staying with this assay, now noted: second compound 1 µM; first compound 0.1 µM; stronger effect = lower value.
Turning to `CC(C)(O)C1CCC(Nc2ccc3ncc(-c4cccc(C(F)(F)F)c4)n3n2)CC1` (configuration not stated) + Cc1cnc(CNC(=O)c2c(=O)c3ccc(N4CCCN(C)CC4)nc3n3c2sc2ccccc23)cn1, the viability, T/C was 19.5%.

Consider `C=CC(=O)N1CCN(c2nc(=O)n(-c3c(C)ccnc3C(C)C)c3nc(-c4c(O)cccc4F)c(F)cc23)C(C)C1` (configuration not stated) + Cc1[nH]c2ccc(F)cc2c1-c1nc2c3cccnc3c3ncccc3c2[nH]1, for which the viability, T/C was 102%.

In the case of `O=C(c1cc(Cc2n[nH]c(=O)c3ccccc23)ccc1F)N1CCN(C(=O)C2CC2)CC1` + CN(C)c1ccc(Nc2c3ccc(NC(=O)CCN4CCCC4)cc3nc3cc(NC(=O)CCN4CCCC4)ccc23)cc1, the viability, T/C is 36.5%.

Regarding `COc1ccc([C@@H](O)c2cc(-c3ncnc4cc(N5CCOCC5)ccc34)c(F)cc2Cl)nn1` + Cc1[nH]c2ccc(F)cc2c1-c1nc2c3cccnc3c3ncccc3c2[nH]1, the viability, T/C was 110%.

Staying with this assay, now noted: second compound 1 µM; first compound 0.316 µM; stronger effect = lower value.
Take `CC(C)(O)C1CCC(Nc2ccc3ncc(-c4cccc(C(F)(F)F)c4)n3n2)CC1` (configuration not stated) + Cc1cnc(CNC(=O)c2c(=O)c3ccc(N4CCCN(C)CC4)nc3n3c2sc2ccccc23)cn1: the viability, T/C is 16%.

For `C=CC(=O)N1CCN(c2nc(=O)n(-c3c(C)ccnc3C(C)C)c3nc(-c4c(O)cccc4F)c(F)cc23)C(C)C1` (configuration not stated) + Cc1[nH]c2ccc(F)cc2c1-c1nc2c3cccnc3c3ncccc3c2[nH]1, the viability, T/C was 110%.

In the case of `O=C(c1cc(Cc2n[nH]c(=O)c3ccccc23)ccc1F)N1CCN(C(=O)C2CC2)CC1` + CN(C)c1ccc(Nc2c3ccc(NC(=O)CCN4CCCC4)cc3nc3cc(NC(=O)CCN4CCCC4)ccc23)cc1, the viability, T/C is 44.2%.

For `COc1ccc([C@@H](O)c2cc(-c3ncnc4cc(N5CCOCC5)ccc34)c(F)cc2Cl)nn1` + Cc1[nH]c2ccc(F)cc2c1-c1nc2c3cccnc3c3ncccc3c2[nH]1, the viability, T/C is 88.6%.

The same assay, now with this note: second compound 1 µM; first compound 1 µM; stronger effect = lower value.
Turning to `CC(C)(O)C1CCC(Nc2ccc3ncc(-c4cccc(C(F)(F)F)c4)n3n2)CC1` (configuration not stated) + Cc1cnc(CNC(=O)c2c(=O)c3ccc(N4CCCN(C)CC4)nc3n3c2sc2ccccc23)cn1, the viability, T/C is 25.2%.

For `C=CC(=O)N1CCN(c2nc(=O)n(-c3c(C)ccnc3C(C)C)c3nc(-c4c(O)cccc4F)c(F)cc23)C(C)C1` (configuration not stated) + Cc1[nH]c2ccc(F)cc2c1-c1nc2c3cccnc3c3ncccc3c2[nH]1, the viability, T/C was 104%.

Consider `O=C(c1cc(Cc2n[nH]c(=O)c3ccccc23)ccc1F)N1CCN(C(=O)C2CC2)CC1` + CN(C)c1ccc(Nc2c3ccc(NC(=O)CCN4CCCC4)cc3nc3cc(NC(=O)CCN4CCCC4)ccc23)cc1, for which the viability, T/C is 48.1%.

On to `COc1ccc([C@@H](O)c2cc(-c3ncnc4cc(N5CCOCC5)ccc34)c(F)cc2Cl)nn1` + Cc1[nH]c2ccc(F)cc2c1-c1nc2c3cccnc3c3ncccc3c2[nH]1, for which the viability, T/C is 78.5%.

The assay is the same for the next values; noted with them: second compound 1 µM; first compound 3.16 µM; stronger effect = lower value.
For the compound `CC(C)(O)C1CCC(Nc2ccc3ncc(-c4cccc(C(F)(F)F)c4)n3n2)CC1` (configuration not stated) + Cc1cnc(CNC(=O)c2c(=O)c3ccc(N4CCCN(C)CC4)nc3n3c2sc2ccccc23)cn1, the viability, T/C is 0.05%.

Regarding `C=CC(=O)N1CCN(c2nc(=O)n(-c3c(C)ccnc3C(C)C)c3nc(-c4c(O)cccc4F)c(F)cc23)C(C)C1` (configuration not stated) + Cc1[nH]c2ccc(F)cc2c1-c1nc2c3cccnc3c3ncccc3c2[nH]1, the viability, T/C is 88.9%.

Take `O=C(c1cc(Cc2n[nH]c(=O)c3ccccc23)ccc1F)N1CCN(C(=O)C2CC2)CC1` + CN(C)c1ccc(Nc2c3ccc(NC(=O)CCN4CCCC4)cc3nc3cc(NC(=O)CCN4CCCC4)ccc23)cc1: the viability, T/C is 52.3%.

For the compound `COc1ccc([C@@H](O)c2cc(-c3ncnc4cc(N5CCOCC5)ccc34)c(F)cc2Cl)nn1` + Cc1[nH]c2ccc(F)cc2c1-c1nc2c3cccnc3c3ncccc3c2[nH]1, the viability, T/C is 64.3%.

The assay is the same for the next values; noted with them: second compound 1 µM; first compound 10 µM; stronger effect = lower value.
As for `CC(C)(O)C1CCC(Nc2ccc3ncc(-c4cccc(C(F)(F)F)c4)n3n2)CC1` (configuration not stated) + Cc1cnc(CNC(=O)c2c(=O)c3ccc(N4CCCN(C)CC4)nc3n3c2sc2ccccc23)cn1, the viability, T/C is 0.07%.

For `C=CC(=O)N1CCN(c2nc(=O)n(-c3c(C)ccnc3C(C)C)c3nc(-c4c(O)cccc4F)c(F)cc23)C(C)C1` (configuration not stated) + Cc1[nH]c2ccc(F)cc2c1-c1nc2c3cccnc3c3ncccc3c2[nH]1, the viability, T/C was 73.2%.

Turning to `O=C(c1cc(Cc2n[nH]c(=O)c3ccccc23)ccc1F)N1CCN(C(=O)C2CC2)CC1` + CN(C)c1ccc(Nc2c3ccc(NC(=O)CCN4CCCC4)cc3nc3cc(NC(=O)CCN4CCCC4)ccc23)cc1, the viability, T/C was 45.8%.

Take `COc1ccc([C@@H](O)c2cc(-c3ncnc4cc(N5CCOCC5)ccc34)c(F)cc2Cl)nn1` + Cc1[nH]c2ccc(F)cc2c1-c1nc2c3cccnc3c3ncccc3c2[nH]1: the viability, T/C was 39.1%.

Still in this assay, the particulars now being: second compound 3.16 µM; first compound 0.0316 µM; stronger effect = lower value.
Consider `CC(C)(O)C1CCC(Nc2ccc3ncc(-c4cccc(C(F)(F)F)c4)n3n2)CC1` (configuration not stated) + Cc1cnc(CNC(=O)c2c(=O)c3ccc(N4CCCN(C)CC4)nc3n3c2sc2ccccc23)cn1, for which the viability, T/C is 13.3%.

Turning to `C=CC(=O)N1CCN(c2nc(=O)n(-c3c(C)ccnc3C(C)C)c3nc(-c4c(O)cccc4F)c(F)cc23)C(C)C1` (configuration not stated) + Cc1[nH]c2ccc(F)cc2c1-c1nc2c3cccnc3c3ncccc3c2[nH]1, the viability, T/C was 93.3%.

Take `O=C(c1cc(Cc2n[nH]c(=O)c3ccccc23)ccc1F)N1CCN(C(=O)C2CC2)CC1` + CN(C)c1ccc(Nc2c3ccc(NC(=O)CCN4CCCC4)cc3nc3cc(NC(=O)CCN4CCCC4)ccc23)cc1: the viability, T/C was 34.7%.

On to `COc1ccc([C@@H](O)c2cc(-c3ncnc4cc(N5CCOCC5)ccc34)c(F)cc2Cl)nn1` + Cc1[nH]c2ccc(F)cc2c1-c1nc2c3cccnc3c3ncccc3c2[nH]1, for which the viability, T/C was 72.4%.

The same assay, now with this note: second compound 3.16 µM; first compound 0.1 µM; stronger effect = lower value.
Turning to `CC(C)(O)C1CCC(Nc2ccc3ncc(-c4cccc(C(F)(F)F)c4)n3n2)CC1` (configuration not stated) + Cc1cnc(CNC(=O)c2c(=O)c3ccc(N4CCCN(C)CC4)nc3n3c2sc2ccccc23)cn1, the viability, T/C is 14.7%.

As to `C=CC(=O)N1CCN(c2nc(=O)n(-c3c(C)ccnc3C(C)C)c3nc(-c4c(O)cccc4F)c(F)cc23)C(C)C1` (configuration not stated) + Cc1[nH]c2ccc(F)cc2c1-c1nc2c3cccnc3c3ncccc3c2[nH]1, the viability, T/C is 91.4%.

These data come from PubChem BioAssay AID2060497 (Molecular Pharmacology Branch, DTP, NCI, 2025).
